# Measured values from ChEMBL document CHEMBL1127203, “Janus compounds: dual inhibitors of proteinases” (Bioorg Med Chem Lett, 1993).
# Square brackets hold non-standard residues; d marks the D form. Peptide text beside a SMILES is read from it. * marks the point of attachment. ξ: configuration not given here. ξF = NC(Cc1ccccc1)C(=O)O; Boc = CC(C)(C)OC(=O)*; CF3 = FC(F)(F)*
# How the values were obtained:
# Chymotrypsinogen A = Chymotrypsinogen A (Bos taurus, UniProt P00766); experiment: The compound was tested for its potency to inhibit alpha-Chymotrypsin
# Cathepsin G = molecular target: T1, Cathepsin G (Homo sapiens, UniProt P08311); experiment: The compound was tested for its potency to inhibit human Cathepsin G
# T1 sequence (P08311 whole entry): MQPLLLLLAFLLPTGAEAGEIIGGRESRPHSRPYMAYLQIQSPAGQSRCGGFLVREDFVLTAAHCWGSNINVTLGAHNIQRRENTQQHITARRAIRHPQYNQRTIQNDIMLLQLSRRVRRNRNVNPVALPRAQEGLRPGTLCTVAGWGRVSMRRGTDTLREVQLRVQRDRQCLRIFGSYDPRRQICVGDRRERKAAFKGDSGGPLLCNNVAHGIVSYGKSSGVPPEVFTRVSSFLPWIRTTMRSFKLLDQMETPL
# Neutrophil elastase = molecular target: T2, Neutrophil elastase (Homo sapiens, UniProt P08246); experiment: The compound was tested for its potency to inhibit human neutrophil elastase activity
# T2 sequence (P08246 whole entry): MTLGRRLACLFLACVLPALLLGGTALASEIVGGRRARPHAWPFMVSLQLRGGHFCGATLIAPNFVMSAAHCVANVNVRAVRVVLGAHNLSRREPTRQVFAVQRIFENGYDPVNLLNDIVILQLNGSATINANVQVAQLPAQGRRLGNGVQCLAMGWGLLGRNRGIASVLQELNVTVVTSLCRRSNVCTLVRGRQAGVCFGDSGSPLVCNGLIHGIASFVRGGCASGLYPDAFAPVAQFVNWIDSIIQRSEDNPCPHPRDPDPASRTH
Ki (Chymotrypsinogen A),Ki (Cathepsin G),Ki (Neutrophil elastase),Compound
1200 nM,> 1000 µM,4 nM,CC(C)C(NC(=O)[C@@H]1CCCN1C(=O)[C@@H](NC(=O)c1ccc(C(=O)NC(Cc2ccccc2)C(=O)C(F)(F)F)cc1)C(C)C)C(=O)C(F)(F)C(F)(F)F (some centres not stated)
,,55 nM,CC(C)C(NC(=O)[C@@H]1CCCN1C(=O)[C@@H](NC(=O)OC(C)(C)C)C(C)C)C(=O)C(F)(F)C(F)(F)F (some centres not stated)
,2.2 µM,15.9 nM,CC(C)C(NC(=O)[C@@H]1CCCN1C(=O)[C@@H](NC(=O)c1ccc(C(=O)N[C@@H](C(=O)N2CCC[C@@H]2C(=O)NC(Cc2ccccc2)C(=O)C(F)(F)F)C(C)C)cc1)C(C)C)C(=O)C(F)(F)C(F)(F)F (some centres not stated)
,1.7 µM,,CC(C)[C@H](NC(=O)OC(C)(C)C)C(=O)N1CCC[C@H]1C(=O)NC(Cc1ccccc1)C(=O)C(F)(F)F (stereo partly drawn) (Boc-Val-Pro-[ξF]-CF3)
